Laboratory results published in patent publication US20180021361A1, “COMBINATION DRUG TREATMENT FOR HEPATITIS C INFECTION” (JANSSEN PHARMACEUTICALS, INC., priority 2016, published 2018).
“Also recorded” adds a separate entry of the source.

Legend:
[1] = Phase-1 drug-drug interaction study, plasma PK in healthy volunteers
Protocol: A drug-drug interaction study (DDI) study is a study designed to investigate whether a drug alters the pharmacokinetics of another drug or drugs or their metabolites.
Compound (III) Subjects received 800 mg of Compound (III) once daily from Days 1-3, Days 11-13, and Days 21-23. PK blood samples for determination of Compound (III) and metabolite concentrations were collected in reference to the Day 3, Day 13, and Day 23 doses.
Simeprevir—Subjects received 150 mg of Simeprevir (SMV) once daily from Days 4-23. PK blood samples for determination of SMV concentrations were collected in reference to the Day 10, Day 13, Day 20, and Day 23 doses.
Odalasvir—Subjects received a loading dose of 150 mg on Day 14, and 50 mg of Odalasvir once daily from Days 15-23. PK blood samples for determination of Odalasvir concentrations were collected in reference to the Day 20 and Day 23 doses.
Compound (III)—Subjects received 800 mg of Compound (III) once daily from Days 1-3, Days 11-13 and Days 21-23. PK blood samples for determination of Compound (III) and metabolite concentrations were collected in reference to the Day 3, Day 13, and Day 23 doses.
Simeprevir—Subjects receive 150 mg of SMV once daily from Days 4-23. PK blood samples for determination of SMV concentrations were collected in reference to the Day 20 and Day 23 doses.
Odalasvir—Subjects receive a loading dose of 150 mg on Day 4, and 50 mg of Odalasvir once daily from Days 5-23. PK blood samples for determination of Odalasvir concentrations were collected in reference to the Day 10, Day 13, Day 20, and Day 23 doses.
A primary objective was to evaluate the effect of multiple oral doses of Odalasvir (alone), Simeprevir (alone), and Odalasvir and Simeprevir on the multiple oral dose PK of Compound (III) (and certain metabolites thereof, such as the major metabolites in systemic circulation) in healthy volunteers. Other objectives were to evaluate the safety and tolerability of multiple oral doses of Compound (III) when administered alone and in combination with single and multiple oral doses of Odalasvir and/or Simeprevir in healthy volunteers; to determine the potential effect of Compound of Compound (III) and/or Odalasvir on the steady-state PK of Simeprevir in healthy volunteers; to determine the potential effect of Compound of Compound (III) and/or Simeprevir on the steady state PK of Odalasvir in healthy volunteers.
Various other PK parameters were estimated including: […], t1/2, Tmax, Tlast, CL/F, Vz/F, and λz.
Odalasvir: 150 mg loading dose; 50 mg for the remainder of the study period.

[2] = biological target: T1, BCRP (Homo sapiens, UniProt Q9UNQ0); conditions: efflux transporter; cited from earlier work
T1 sequence (Q9UNQ0 1-655): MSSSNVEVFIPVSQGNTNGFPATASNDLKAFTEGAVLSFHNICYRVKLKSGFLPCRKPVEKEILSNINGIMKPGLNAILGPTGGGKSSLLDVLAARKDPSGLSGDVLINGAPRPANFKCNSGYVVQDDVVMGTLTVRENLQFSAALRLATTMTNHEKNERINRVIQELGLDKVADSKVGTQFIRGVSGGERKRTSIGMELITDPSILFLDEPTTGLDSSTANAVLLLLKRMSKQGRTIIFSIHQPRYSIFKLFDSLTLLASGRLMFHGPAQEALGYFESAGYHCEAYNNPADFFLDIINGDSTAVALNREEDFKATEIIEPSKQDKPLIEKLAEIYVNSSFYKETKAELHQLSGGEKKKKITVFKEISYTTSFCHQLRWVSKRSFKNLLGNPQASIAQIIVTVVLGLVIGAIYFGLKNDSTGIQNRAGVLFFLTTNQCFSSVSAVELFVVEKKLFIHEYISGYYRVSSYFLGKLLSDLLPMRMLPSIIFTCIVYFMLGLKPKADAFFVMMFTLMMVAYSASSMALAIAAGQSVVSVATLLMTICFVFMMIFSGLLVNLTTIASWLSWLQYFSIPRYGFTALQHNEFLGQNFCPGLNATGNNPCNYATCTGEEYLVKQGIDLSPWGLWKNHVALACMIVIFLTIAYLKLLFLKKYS

[3] = biological target: T2, OATP1B1 (Homo sapiens, UniProt Q9Y6L6); conditions: uptake transporter; cited from earlier work
T2 sequence (Q9Y6L6 1-691): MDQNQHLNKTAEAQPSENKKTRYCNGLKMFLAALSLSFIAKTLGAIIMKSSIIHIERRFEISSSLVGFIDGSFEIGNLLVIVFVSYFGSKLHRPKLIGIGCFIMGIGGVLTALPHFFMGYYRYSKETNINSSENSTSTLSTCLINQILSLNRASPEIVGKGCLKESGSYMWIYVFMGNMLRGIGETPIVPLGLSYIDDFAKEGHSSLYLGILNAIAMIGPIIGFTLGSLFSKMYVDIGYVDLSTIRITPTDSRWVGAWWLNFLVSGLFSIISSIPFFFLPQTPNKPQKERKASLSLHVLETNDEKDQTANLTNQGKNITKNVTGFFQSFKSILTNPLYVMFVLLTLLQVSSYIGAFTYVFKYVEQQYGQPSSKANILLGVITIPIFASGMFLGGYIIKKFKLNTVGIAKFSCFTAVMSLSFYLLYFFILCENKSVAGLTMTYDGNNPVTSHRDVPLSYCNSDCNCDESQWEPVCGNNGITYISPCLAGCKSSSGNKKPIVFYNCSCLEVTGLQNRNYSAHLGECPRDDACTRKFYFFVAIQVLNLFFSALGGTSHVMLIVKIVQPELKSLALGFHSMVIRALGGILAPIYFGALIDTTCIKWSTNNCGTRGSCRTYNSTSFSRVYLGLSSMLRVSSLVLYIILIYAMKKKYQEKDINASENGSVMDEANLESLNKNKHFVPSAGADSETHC

SMILES | exposure increase caused by SMV ([1]; DDI study results) [×] | exposure increase, effect of the three Compounds ([1]; DDI study results) [×] | increase of exposure with the combination of the three drugs ([1]; human in vivo study) [times] | effect of Compound (III) on exposure / bioavailability ([1]; human subjects) | in vitro inhibition of BCRP [2] | in vitro inhibition of OATP1B1 [3] | exposure increase caused by Odalasvir ([1]; DDI study results) [×] | increase of exposure with the combination of the three drugs ([1]; both, human, in vivo) | bioavailability of Compound (III) when SMV and ODV are co-administered, compared to Compound (III) alone ([1]; human subjects)
COC(=O)N[C@H](C(=O)N1[C@H](c2nc3cc(-c4cc5ccc4CCc4ccc(c(-c6ccc7[nH]c([C@@H]8C[C@@H]9CCCC[C@@H]9N8C(=O)[C@@H](NC(=O)OC)C(C)C)nc7c6)c4)CC5)ccc3[nH]2)C[C@@H]2CCCC[C@@H]21)C(C)C [ODV, methyl [(2S)-1-[(2S,3aS,7aS)-2-[6-[11-[2-[(2S,3aS,7aS)-1-[(2S)-2-[(methoxycarbonyl)amino]-3-methylbutanoyl]octahydro-1H-indol-2-yl]-1H-benzimidazol-6-yl]tricyclo[8.2.2.2^4,7]hexadeca-1(12),4,6,10,13,15-hexaen-5-yl]-1H-benzimidazol-2-yl]octahydro-1H-indol-1-yl]-3-methyl-1-oxobutan-2-yl]carbamate] | 1.6 | 1.5 | 1.5 | no apparent effect; also recorded: does not alter | no inhibition | no inhibition | – | – | –
CC(C)OC(=O)C(C)N[P@](=O)(OC[C@@]1(F)O[C@@H](n2ccc(=O)[nH]c2=O)[C@](C)(O)[C@@H]1O)Oc1ccccc1 (stereo in doubt) [Compound (III)] | 3 | – | – | – | no in vitro inhibition | no in vitro inhibition | 4 | 7-8 times | approximately 8 fold
